Reference: US20250353863A1, “TRICYCLIC SPIROLACTAM COMPOUNDS WITH ANTIMYCOBACTERIAL ACTIVITY” (priority 2022, published 2025)
In brackets after ≈: the same amount, converted by molar mass. Like-named read-outs stand apart in the source and are kept apart here.

How the values were obtained:
Mtb H37Rv-WT = test: MIC by resazurin microtiter assay (REMA) against Mtb; type: cell-based; conditions: Mycobacterium tuberculosis
[1] = biological target: purified Ndh (Mtb recombinant MBP tagged Ndh-2 enzyme, MBP-Ndh) (Mycobacterium tuberculosis (strain ATCC 25618 / H37Rv), UniProt P95160); test: Biochemical evaluation of MBP-Ndh inhibition (NADH oxidation with menadione)
Sequence of purified Ndh (Mtb recombinant MBP tagged Ndh-2 enzyme, MBP-Ndh) (P95160 whole entry, looked up): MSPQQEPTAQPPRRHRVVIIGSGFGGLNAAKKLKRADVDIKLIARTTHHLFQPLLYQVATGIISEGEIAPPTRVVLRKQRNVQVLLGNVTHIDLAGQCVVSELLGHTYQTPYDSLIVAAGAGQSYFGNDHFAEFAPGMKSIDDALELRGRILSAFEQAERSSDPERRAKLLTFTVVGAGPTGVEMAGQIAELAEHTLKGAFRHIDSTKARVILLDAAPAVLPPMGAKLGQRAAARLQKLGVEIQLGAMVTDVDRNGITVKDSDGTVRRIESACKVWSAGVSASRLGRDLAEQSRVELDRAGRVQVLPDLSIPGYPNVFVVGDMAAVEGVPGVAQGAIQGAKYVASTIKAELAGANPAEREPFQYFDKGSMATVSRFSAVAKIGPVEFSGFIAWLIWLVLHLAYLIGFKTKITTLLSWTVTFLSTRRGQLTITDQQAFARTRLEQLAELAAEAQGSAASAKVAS

[2] = biological target: NdhA-M. tb (recombinant MBP-NdhA) (Mycobacterium tuberculosis (strain ATCC 25618 / H37Rv), UniProt P95200); test: Biochemical evaluation of MBP-NdhA inhibition (NADH oxidation with menadione)
Sequence of NdhA-M. tb (recombinant MBP-NdhA) (P95200 whole entry, looked up): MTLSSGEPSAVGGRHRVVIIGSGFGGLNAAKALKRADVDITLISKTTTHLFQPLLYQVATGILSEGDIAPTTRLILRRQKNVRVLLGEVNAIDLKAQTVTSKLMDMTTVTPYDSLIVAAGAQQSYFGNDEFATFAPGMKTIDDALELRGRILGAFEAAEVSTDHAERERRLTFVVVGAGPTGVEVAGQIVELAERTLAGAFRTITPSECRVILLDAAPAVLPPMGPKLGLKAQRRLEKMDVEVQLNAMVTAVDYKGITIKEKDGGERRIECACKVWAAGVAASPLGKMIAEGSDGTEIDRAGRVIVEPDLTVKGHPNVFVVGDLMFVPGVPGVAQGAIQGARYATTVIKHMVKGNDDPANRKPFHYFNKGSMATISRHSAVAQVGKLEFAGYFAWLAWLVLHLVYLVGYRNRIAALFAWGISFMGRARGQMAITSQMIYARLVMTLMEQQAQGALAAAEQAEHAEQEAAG

M. abscessus R = test: MIC analysis of non-Mtb mycobacteria; type: cell-based, Mycobacterium abscessus; conditions: Mycobacteroides abscessus, 48 h; 2 days incubation
M. abscessus S = test: MIC analysis of non-Mtb mycobacteria; type: cell-based, Mycobacterium abscessus; conditions: Mycobacteroides abscessus, 48 h; 2 days incubation
M. smegmatis = test: MIC analysis of non-Mtb mycobacteria; type: cell-based; conditions: Mycolicibacterium smegmatis, 48 h; 2 days incubation
M. marinum = test: MIC analysis of non-Mtb mycobacteria; type: cell-based; conditions: Mycobacterium marinum, 120 h; 5 days, 30° C., visual inspection
M. avium = test: MIC analysis of non-Mtb mycobacteria; type: cell-based; conditions: Mycobacterium avium, 120 h; 5 days incubation
BCG = test: microbe, parasite or virus in culture; type: cell-based; conditions: Mycobacterium tuberculosis variant bovis BCG, read-out: MIC BCG
[3] = REMA, read-out: MIC M. tuberculosis
[4] = 144 h, REMA, 37° C., 6 days, read-out: MIC (μM) H37Rv-WT
[5] = NADH 500 μM, menadione 100 μM, read-out: IC50 (μM) purified Ndh
[6] = 144 h, read-out: MIC (μM) H37Rv-WT

CC(C)[C@H]1CO[C@]23CCN(Cc4ccc(Cl)cc4)C[C@H]2CCC(=O)N13 [Example 4, (3S,7aR,11aR)-9-[(4-chlorophenyl)methyl]-3-isopropyl-2,3,6,7,7a,8,10,11-octahydrooxazolo[2,3-j][1,6]naphthyridin-5-one]
MIC (Mtb H37Rv-WT; [3]): < 1 µM
IC50 ([1]; read-out: IC50 Ndh-M. tb): < 0.1 µM
IC50 [2]: < 100 nM

CC(C)[C@H]1CO[C@]23CCN(Cc4ccc(C(F)(F)F)cc4)C[C@H]2CCC(=O)N13 [Example 2, (3S,7aR,11aR)-3-isopropyl-9-[[4-(trifluoromethyl)phenyl]methyl]-2,3,6,7,7a,8,10,11-octahydrooxazolo[2,3-j][1,6]naphthyridin-5-one]
MIC (Mtb H37Rv-WT; [3]): < 1 µM
IC50 [2]: < 100 nM
MIC (M. abscessus R): 1 to 10 µM (≈ 0.396 to 3.96 µg/mL)
MIC (M. abscessus S): 1 to 10 µM (≈ 0.396 to 3.96 µg/mL)
MIC (M. smegmatis): 1 to 10 µM (≈ 0.396 to 3.96 µg/mL)
MIC (M. marinum): < 1 µM
MIC (M. avium): < 1 µM
MIC (BCG): 1 to 10 µM (≈ 0.396 to 3.96 µg/mL)

CC(C)[C@H]1CO[C@]23CCN(Cc4ccccc4)C[C@H]2CCC(=S)N13 [(3S,7aR,11aR)-9-benzyl-3-isopropyl-2,3,6,7,7a,8,10,11-octahydrooxazolo[2,3-j][1,6]naphthyridine-5-thione]
MIC (Mtb H37Rv-WT; [4]): 1 to 10 µM (≈ 0.345 to 3.45 µg/mL)
IC50 [1, 5]: 0.1 to 1 µM

COc1ccc(CN2CC[C@]34OC[C@H](C(C)C)N3C(=O)CC[C@@H]4C2)cc1 [(3S,7aR,11aR)-3-isopropyl-9-[(4-methoxyphenyl)methyl]-2,3,6,7,7a,8,10,11-octahydrooxazolo[2,3-j][1,6]naphthyridin-5-one]
MIC (Mtb H37Rv-WT; [4]): 1 to 10 µM (≈ 0.358 to 3.58 µg/mL)
IC50 [1, 5]: 0.1 to 1 µM

CC(C)[C@H]1CO[C@]23CCN(Cc4cc5ccccc5n4C)C[C@H]2CCC(=O)N13 [Example 28, (3S,7aR,11aR)-3-isopropyl-9-[(1-methylindol-2-yl)methyl]-2,3,6,7,7a,8,10,11-ocathydrooxazolo[2,3-j][1,6]naphthyridin-5-one]
MIC (Mtb H37Rv-WT; [3]): < 1 µM
IC50 ([1]; read-out: IC50 Ndh-M. tb): < 0.1 µM
MIC (M. smegmatis): < 1 µM

CC(C)(C)[C@H]1CO[C@]23CCN(Cc4ccccc4)C[C@H]2CCC(=O)N13 [(3S,7aR,11aR)-9-benzyl-3-tert-butyl-2,3,6,7,7a,8,10,11-octahydrooxazolo[2,3-j][1,6]naphthyridin-5-one]
MIC (Mtb H37Rv-WT; [4]): > 10 µM
IC50 [1, 5]: > 1 µM

CC(C)[C@H]1CO[C@]23CCN(Cc4cccnc4)C[C@H]2CCC(=O)N13 [(3S,7aR,11aR)-3-isopropyl-9-(3-pyridylmethyl)-2,3,6,7,7a,8,10,11-octahydrooxazolo[2,3-j][1,6]naphthyridin-5-one]
MIC (Mtb H37Rv-WT; [6]): 1 to 10 µM (≈ 0.329 to 3.29 µg/mL)
IC50 [1, 5]: > 1 µM

CC(C)[C@H]1CO[C@]23CCN(Cc4ccc(C(F)(F)F)nc4)C[C@H]2CCC(=O)N13 [(3S,7aR,11aR)-3-isopropyl-9-[[6-(trifluoromethyl)-3-pyridyl]methyl]-2,3,6,7,7a,8,10,11-octahydrooxazolo[2,3-j][1,6]naphthyridin-5-one]
MIC (Mtb H37Rv-WT; [4]): < 1 µM
IC50 [1, 5]: < 0.1 µM

CC(C)[C@H]1CO[C@]23CCN(Cc4ccccn4)C[C@H]2CCC(=O)N13
MIC (Mtb H37Rv-WT; [6]): 1 to 10 µM (≈ 0.329 to 3.29 µg/mL)
IC50 [1]: 0.1 to 1 µM

CC(C)[C@H]1CO[C@]23CCN(CCc4ccc(C(F)(F)F)cc4)C[C@H]2CCC(=O)N13
MIC (Mtb H37Rv-WT; [4]): < 1 µM
IC50 [1, 5]: 0.1 to 1 µM

CC(C)[C@H]1CO[C@]23CCN(C(=O)OCc4ccccc4)C[C@H]2CCC(=O)N13 [benzyl (3S,7aR,11aR)-3-isopropyl-5-oxo-2,3,6,7,7a,8,10,11-octahydrooxazolo[2,3-j][1,6]naphthyridine-9-carboxylate]
MIC (Mtb H37Rv-WT; [4]): 1 to 10 µM (≈ 0.372 to 3.72 µg/mL)
IC50 [1, 5]: 0.1 to 1 µM

CC(C)[C@H]1CO[C@]23CCN(Cc4ccc(Cl)c(Cl)c4)C[C@H]2CCC(=O)N13 [Example 5, (3S,7aR,11aR)-9-[(3,4-dichlorophenyl)methyl]-3-isopropyl-2,3,6,7,7a,8,10,11-octahydrooxazolo[2,3-j][1,6]naphthyridin-5-one]
MIC (Mtb H37Rv-WT; [3]): < 1 µM
IC50 ([1]; read-out: IC50 Ndh-M. tb): < 0.1 µM

CC(C)[C@H]1CO[C@]23CCN(Cc4ccc(Cl)c(C(F)(F)F)c4)C[C@H]2CCC(=O)N13 [Example 9, (3S,7aR,11aR)-9-[[4-chloro-3-(trifluoromethyl)phenyl]methyl]-3-isopropyl-2,3,6,7,7a,8,10,11-octahydrooxazolo[2,3-j][1,6]naphthyridin-5-one]
MIC (Mtb H37Rv-WT; [3]): < 1 µM
IC50 ([1]; read-out: IC50 Ndh-M. tb): < 0.1 µM
MIC (M. abscessus R): 1 to 10 µM (≈ 0.431 to 4.31 µg/mL)
MIC (M. abscessus S): 1 to 10 µM (≈ 0.431 to 4.31 µg/mL)
MIC (M. smegmatis): 1 to 10 µM (≈ 0.431 to 4.31 µg/mL)
MIC (M. marinum): < 1 µM
MIC (M. avium): < 1 µM
MIC (BCG): 1 to 10 µM (≈ 0.431 to 4.31 µg/mL)

CC(C)[C@H]1CO[C@]23CCN(Cc4ccc(OC(F)(F)F)cc4)C[C@H]2CCC(=O)N13 [Example 3, (3S,7aR,11aR)-3-isopropyl-9-[[4-(trifluoromethoxy)phenyl]methyl]-2,3,6,7,7a,8,10,11-octahyooxazolo[2,3-j][1,6]naphthyridin-5-one]
MIC (Mtb H37Rv-WT; [3]): < 1 µM
IC50 [2]: < 100 nM
MIC (M. abscessus R): 1 to 10 µM (≈ 0.412 to 4.12 µg/mL)
MIC (M. abscessus S): 1 to 10 µM (≈ 0.412 to 4.12 µg/mL)
MIC (M. smegmatis): 1 to 10 µM (≈ 0.412 to 4.12 µg/mL)
MIC (M. marinum): < 1 µM
MIC (M. avium): < 1 µM
MIC (BCG): 1 to 10 µM (≈ 0.412 to 4.12 µg/mL)

CC(C)[C@H]1CO[C@]23CCN(Cc4ccc(C(F)(F)F)cn4)C[C@H]2CCC(=O)N13 [(3S,7aR,11aR)-3-isopropyl-9-[[5-(trifluoromethyl)-2-pyridyl]methyl]-2,3,6,7,7a,8,10,11-octahydrooxazolo[2,3-j][1,6]naphthyridin-5-one]
MIC (Mtb H37Rv-WT; [4]): < 1 µM
IC50 [1, 5]: 0.1 to 1 µM

CC(C)[C@H]1CO[C@]23CCN(Cc4ccc5ccccc5n4)C[C@H]2CCC(=O)N13 [(3S,7aR,11aR)-3-isopropyl-9-(2-quinolylmethyl)-2,3,6,7,7a,8,10,11-octahydrooxazolo[2,3-j][1,6]naphthyridin-5-one]
MIC (Mtb H37Rv-WT; [4]): < 1 µM
IC50 [1, 5]: 0.1 to 1 µM

CC(C)[C@H]1CO[C@]23CCN(CCc4ccccc4)C[C@H]2CCC(=O)N13 [(3S,7aR,11aR)-3-isopropyl-9-(2-phenylethyl)-2,3,6,7,7a,8,10,11-octahydrooxazolo[2,3-j][1,6]naphthyridin-5-one]
MIC (Mtb H37Rv-WT; [4]): 1 to 10 µM (≈ 0.342 to 3.42 µg/mL)
IC50 [1, 5]: 0.1 to 1 µM
